According to US20250306034A1, “Detection of Liver Disease” (Owlstone Medical Limited, priority 2022, published 2025):
Blank lines part the entries; values can stand above or below the compound they belong to.

Key:
[1] = target: AKR1B10 (Homo sapiens, UniProt O60218); assay: Bioproduct production in A549 WT and AKR1B10 KO cells, headspace GC-MS; conditions: for substrate of AKR1B10 (converted to 1-nonanol / trans-2-hexenol by this enzyme): WT versus AKR1B10 KO A549 cells
Excerpt: We have tested conversion of these substrates to the respective bioproduct 1-nonanol, trans-2-hexenol, hexenol, benzyl alcohol, and nerol, in a cancer cell line overexpressing AKR1B10.
A549 lung cancer cells were targeted with a CRISP/Cas system to ablate the protein expression of AKR1B10. Specific sgRNA for the AKR1B10 gene were co-transfected in cells with SpCas9 using ribonucleoproteins (RNPs). Clonal cells were generated by using limiting dilution. […] Resulting protein extract for WT and AKR1B10 KO cells were analysed using the Jess system and samples were probed with an AKR1B10 specific antibody, and with an antibody against α-Tubulin as independent reporter.
5×10^4 cells/mL of WT or 3 AKR1B10 KO clone cells were seeded in 24-well plates using cell culture media and let adhere and proliferate for 48 hours to confluence. Then, they were treated with 30 μM nonanal or 10 µM trans-2-hexenal. […] Headspace analysis was performed by using Centri, coupled with a GC-MS Orbi-trap system. Peak identification of nonanal, 1-nonanol, trans-2-hexenal, and trans-2-hexenol, was performed by comparing the peak against reference standards.

[2] = Blood levels of bioproducts in NASH rat model (CDHFD vs normal diet); conditions: for time after administration at which blood concentration increases / blood levels, CDHFD compared to ND rats: after oral 2-butanol 440 mg/Kg; for blood levels, CDHFD compared to ND rats: at 8 and 12 hours (480, 720 minutes)
Protocol: Blood samples were analysed using gas chromatography mass spectrometry (GC/-MS) or HPLC to measure metabolitic bioproducts benzoic acid, 3-hydroxy-2-butanone, 2-3-butanediol, and 2,3-pentanediol.
A total of 18 Wistar Han rats were acclimatized for 6 days. After that time, 9 rats remained on a normal diet, while 9 rats were switched to a choline deficient high fat diet (CDHFD) (L-Amino Acid Diet With 45 kcal % Fat With 0.1% Methionine, No Added Choline and 1% Cholesterol) (Research Diet, catalog #A16092003, https://researchdiets.com/en/formulas/a16092003). Rats had ad libitum access to food and water at all times unless differently specified. Body weight was measured every week.
Following 10 weeks of diet treatment, rats were randomised into groups each group composed of 3 healthy and 3 NASH rats for dosing with the different compounds.
Each group received an emulsion containing the compounds reported in table 1 at the indicated amount.
Each compound preparation was administered as an emulsion containing 15% Tween80 diluted in water to deliver the target amount in 5 mL/kg body weight. The emulsion was administered by oral gavage after the rats were fasted for 16 hours.
Blood samples were collected pre (0 min) and post compound administration at the following timepoints: 5 min, 15 min, 30 min, 1 h, 1.5 h, 2 h, 4 h, 8 h, 12 h, and 24 h.
At each time point, ˜200 μL blood samples were collected into EDTA-K2 tubes and placed on wet ice until centrifugation. Plasma was generated, from the blood samples, by centrifugation at approximately 4° C., 3,200 g for 5 min.
A total of 100 μL of plasma was collected respectively and transferred into Eppendorf tubes. Of these, 95 μL of plasma were spiked with 400 μL of internal standard in acetonitrile, vortexed for 30s and centrifuged for 15 min at 3220 g. A total of 100 μL of supernatant was used for compounds quantification, unless differently specified.
Response for each compound was normalized by the response of the internal standard, and absolute quantification was performed against a calibration curve.

[3] = test system: healthy and NASH hepatocytes; conditions: for level of probe in presence of NASH and healthy hepatocytes compared with absence of hepatocytes: 50 ng/μL in culture medium, aliquots 0.5 to 24 hours
Excerpt: Organ-on-a-chip containing healthy human hepatocytes and human hepatocytes treated to generate a model of a healthy or NASH liver disease were used in the following experiments. The Organ-on-a-chip containing healthy human hepatocytes are similar to the Organ-on-a-chip described above, but the experiment also included a model of NASH hepatocytes. The latter are obtained by treating healthy hepatocytes with Kupfer cells and hepatocytes stellate cells.
Primary human hepatocytes (PHHs), Kupffers cells (KCs), and hepatic stellate cells (HSCs) were seeded onto CN-Bio's PhysioMimix LC12 MPS culture plates at 6×10^5 cells for PHHs and 6×10^4 cells for HKCs and HSCs (necessary to induce the NASH phenotype) per well in CN-Bio's seeding medium. Throughout the experiment the cells were maintained at a medium flow rate of 1 μl/s. At days 4, 6, 8, 11, and 12 post seeding, medium aliquots were taken to measure LDH and albumin to assess cell health. At day 13 (24 hours post VOCs treatment), final medium collection for analysis was performed. Scaffolds were fixed in 4% formaldehyde for Oil Red O staining to assess lipid accumulation.
Primary hepatocytes were treated with 2-butanol and nonanal diluted in the hepatocytes culture medium at a concentration of 50 ng/μL. Aliquots of the culture medium were collected at 0.5, 1, 2, 4, 6, and 24 hours. The remaining medium-compound mix that was not added to the cells was considered as 0 timepoint reference. Headspace analysis was performed by using Centri, an automated system used to collect VOCs in the headspace, coupled with a GC-MS Orbi-trap system, a high-resolution mass spectrometer for detection and quantification of VOCs. Peak identification of 2-butanol, 2-butanone, nonanal, and 1-nonanol was performed by comparing the peak against a reference standard. A p-value<0.05 was considered as statistically significant.

[4] = test system: healthy human hepatocytes; assay: Metabolism of VOCs by healthy human hepatocytes (organ-on-a-chip)
Protocol: Organ-on-a chip samples were used.
Organ-on-a chip is a three-dimensional hepatocytes culturing system developed by a company called CN-Bio Ltd. Aliquots of media spiked with VOCs and collected at different time points are analysed using CENTRI-GC-MS a system for VOCs headspace detection and quantification. The experiment contained samples from healthy hepatocytes in the culture medium exposed to 2-butanol, nonanal at one of the concentrations: 50, 10, 2 and 0 ng/μL, and the control which is the culture medium without hepatocytes containing 2-butanol, and nonanal of the same concentration.
System suitability test (SST) and […] standards check (0, 2, 10 and 50 ng/μL), were run in duplicate at the beginning, in the middle and at the end of the sequence to mitigate against the risk of an instrumental deviation.
Empty tubes were also run at the beginning, in the middle and at the end of the sequence to mitigate against the risk of a carryover 0.5 μL Internal standards (1000 ng/μL) were spiked into each sample prior to analysis.

[5] = Nonanal and 2-butanol washout in breath of volunteers; conditions: three volunteers; swallowed emulsion with 500 mg of Nonanal and 100 mg of 2-butanol; GC-MS
Protocol: An analysis of nonanal and 2-butanol washout of breath samples collected from three volunteers investigated before and after the intake of 500 mg of Nonanal and 100 mg of 2-butanol was performed. Three breath collections have been performed per each volunteer.
Three Volunteers participated in this trial for 3 times. They swallowed an emulsion containing 500 mg of Nonanal and 100 mg of 2-butanol and their breath was collected at 8 different time points before and after the emulsion intake using the ReCIVA, a face mask containing tubes for breath collection, and storage of exhaled VOCs.
Appearance on breath and conversion of the probes to their bioproducts was measured using gas-chromatography mass-spectrometry (GC-MS).

[6] = hepatocytes treated with 2-butanol and nonanal at 50 ng/μL
[7] = after oral 2-pentanone 160 mg/Kg

Sequence of AKR1B10 (O60218 whole entry): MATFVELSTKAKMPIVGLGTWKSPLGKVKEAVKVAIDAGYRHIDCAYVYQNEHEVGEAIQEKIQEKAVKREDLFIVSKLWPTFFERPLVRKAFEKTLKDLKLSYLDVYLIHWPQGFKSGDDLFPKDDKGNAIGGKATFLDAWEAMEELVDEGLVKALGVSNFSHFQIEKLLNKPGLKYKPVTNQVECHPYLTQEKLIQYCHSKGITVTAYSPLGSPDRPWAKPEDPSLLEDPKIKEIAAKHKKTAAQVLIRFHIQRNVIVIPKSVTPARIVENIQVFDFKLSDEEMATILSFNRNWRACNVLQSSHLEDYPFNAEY

bioproduct generation after ablation of AKR1B10 or treatment of the cells with AKRs inhibitors [1]: reduced or absent bioproduct generation
substrate of AKR1B10 (converted to 1-nonanol / trans-2-hexenol by this enzyme) [1]: substrates for AKR1B10
production of bioproduct of trans-2-hexenal, levels in WT compared to AKR1B10 KO cells ([1]; human, 10 μM): 10 times higher
level of trans-2-hexenal in medium added to WT or AKR1B10 KO cell lines, versus medium without cells ([1]; human, 3 h, 10 μM): increased reduction over 3 hours
Compound: CCC/C=C/C=O [trans-2-hexenal]
conversion of the substrate to the respective bioproduct ([1]; human, 6 h): conversion to the bioproducts in a timeframe of 6 hours

Compound: CCCCCC=O [hexanal]
conversion of the substrate to the respective bioproduct ([1]; human, 6 h): conversion to the bioproducts in a timeframe of 6 hours

Compound: CC(O)C(C)O (centres unmarked) [2,3-butanediol]
time after administration at which blood concentration increases [2]: 240 min
blood levels, CDHFD compared to ND rats [2]: higher levels in CDHFD compared to ND rats

Compound: O=Cc1ccccc1 [benzylaldehyde]
conversion of the substrate to the respective bioproduct ([1]; cancer cell line overexpressing AKR1B10, substrates added to the culture media): conversion to the bioproducts in a timeframe of 6 hours

Compound: CCCCCCCCC=O [nonanal]
bioproduct generation after ablation of AKR1B10 or treatment of the cells with AKRs inhibitors [1]: reduced or absent bioproduct generation
substrate of AKR1B10 (converted to 1-nonanol / trans-2-hexenol by this enzyme) [1]: substrates for AKR1B10
level of nonanal in medium added to WT or AKR1B10 KO cell lines, versus medium without cells ([1]; human, 3 h, 30 μM): increased reduction over 3 hours
conversion of the substrate to the respective bioproduct ([1]; human, 6 h): conversion to the bioproducts in a timeframe of 6 hours
level of probe in presence of NASH and healthy hepatocytes compared with absence of hepatocytes [3]: more marked reduction

Compound: CCC(C)=O [2-butanone]
area of the bioproduct peak, NASH versus healthy hepatocytes [3, 6]: the area under the peak for healthy is larger than for NASH
production of bioproduct, NASH versus healthy hepatocytes [3, 6]: Healthy hepatocytes showed higher production of 2-butanone at 6 hours
level of bioproduct over time in media with hepatocytes ([4]; hepatocytes exposed to nonanal and 2-butanol, 50, 10, 2 and 0 ng/μL): a spike and subsequent decrease

time after administration after which blood levels increased [2, 7]: 1 h
Compound: CCC(O)C(C)O (centres unmarked) [2,3-pentanediol]
blood levels, CDHFD rats compared to ND rats [2, 7]: higher in CDHFD rats compared to ND rats after 4 hours

Compound: CC(C)=CCCC(C)=CC=O [citral]
conversion of the substrate to the respective bioproduct ([1]; human, 6 h): conversion to the bioproducts in a timeframe of 6 hours

Compound: CCC(C)O (centres unmarked) [2-butanol]
detection in breath samples after emulsion intake [5]: detected
level of probe in presence of NASH and healthy hepatocytes compared with absence of hepatocytes [3]: more marked reduction at 24 h
level of probe over 24 hours in media alone and media with hepatocytes ([4]; 50, 10, 2 and 0 ng/μL, healthy hepatocytes, headspace GC-MS): a decrease both in media alone and media with hepatocytes

production of 1-nonanol, levels in WT compared to AKR1B10 KO cells ([1]; human, 30 μM): 3 times higher
Compound: CCCCCCCCCO [1-nonanol]

time after administration at which blood concentration increases [2]: 240 min
Compound: CC(=O)C(C)O (centres unmarked) [3-hydroxy-2-butanone]
blood levels, CDHFD compared to ND rats [2]: higher levels in CDHFD compared to ND rats
